# Like-named read-outs stand apart in the source and are kept apart here.
# What was measured:
# [1] = test system: hyperlipidemia caused by the administration of TRITON; assay: Triton test: lipid regulating activity in hyperlipidemia caused by TRITON W. R.; type: in vivo, WISTAR male rats; conditions: Rattus norvegicus, po, 250 mg/kg orally, 6 hours and/or 24 hours
# Protocol: In a first series of experiments, products were tested on a hyperlipidemia caused by the administration of TRITON according to the following procedure.
# The tests were carried out on groups of five WISTAR male rats whose weight varied from 150 to 175 g.
# The tested products were administered, orally in the form of a 3% aqueous solution of tragacanth gum in the ratio of 1 ml per 100 g of body weight, in an amount corresponding to 250 mg/kg.
# To carry out these tests, a hyperlipidemia was caused in the animals, by means of the product marketed by the ROHM and HAAS Company under the name TRITON W. R.
# On this hyperlipidemia the effects obtained by the administration of the active substances according to the invention, are observed.
# The tests were carried out as follows:
# the rats were fasted for 18 hours, then the TRITON W. R. was administered intravenously in 10% aqueous solution in the proportion of 200 mg/kg;
# simultaneously 250 mg/kg of the product under test was administered orally;
# 6 hours and/or 24 hours later, blood assays were carried out conventionally.
# to the total cholesterol, […]
# [2] = test system: atherosclerosis inducing diet (cholesterol, cholic acid, vitamine D2); assay: Atherosclerosis inducing diet: biochemical exams; type: in vivo, Wistar female rats; design: CHOLESTEROL T, % reduction with respect to the control diet / CHOLESTEROL HDL, % with respect to the control diet / CHOLESTEROL LDL, % reduction with respect to the control diet / TRIGLYCERIDES, % reduction with respect to the control diet: concentration or dose not given beside the values
# Protocol: (§1) In a second experimental series, tha activity of certain products according to the invention were tested on animals which had received an atherosclerosis inducing diet for a long period.
# (§2) The test was carried out on Wistar female rats, of weight about 160-180 g.
# (§3) The animals received food coming from the National Nutrition plant of Villemoisson-sur-Orge, France, and denoted by the reference UAR AO3, enriched in cholesterol (0.5%) and in cholic acid (0.5%).
# (§4) After 15 days of the atherosclerosis inducing diet and whilst maintaining the animals on an atherosclerosis inducing diet, they were given orally for 4 days 250.000 iu/kg of vitamine D2 marketed under the name Sterogyl 25H, in solution in olive oil.
# (§5) Then the products under study were administered for 4 weeks, from the end of the administration of the lesion-inducing agent.
# At the end of the study, biochemical examinations were carried out on all the animals [total cholesterol, high density lipoprotein (HDL) and cholesterol low density lipoprotein (LDL), and triglycerides].
# (§6) Then the pecentage reduction with respect to the diet controls and the score were calculated, that is to say the ratio of the intensity of the activity of the product tested with respect to that of the activity of clofibrate, reckoned as 1.
# Table IX gives the detailed results of the biochemical examination:
# (a) in % reduction with respect to the control die;
# (b) as score, with respect to the reference product, clofibrate, the latter being counted as 1.
# atherosclerosis lesions = assay: Atherosclerosis inducing diet: macroscopic exams (affected animals); type: in vivo, Wistar female rats
# Protocol: as §1, §2, §3, §4, §5
# At the end of the study, all the animals still alive were sacrificed, and various organs were removed, particularly the aorta, for histological study of the latter. Two criteria were examined: the number of atherosclerosis areas and the severity of the lesions.
# as §6
# Table X gives the results of macroscopic examinations:
# (a) in % decrease in animals afflicted with lesions;
# (b) as score with respect to the reference clofibrate, of which the score was counted as 1.
# [3] = read-out: Total cholesterol, % of decrease with respect to Triton control
# [4] = read-out: Total lipids, % of decrease with respect to Triton control
# [5] = read-out: Triglycerides, % of decrease with respect to Triton control
SMILES,"change in vivo at 250 mg/kg [1, 3]","change in vivo at 250 mg/kg [1, 4]","change in vivo at 250 mg/kg [1, 5]",other results
"CCOC(=O)CCCCCNS(=O)(=O)c1cc(Cl)c([N+](=O)[O-])cc1OC [compound 380, ethyl ester of (5-chloro 4-nitro 2-methoxy benzenesulfonamide)caproic acid]",-19%,-31%,-86%,–
CCOC(=O)CCCCCNS(=O)(=O)c1cc(Cl)c(N)cc1OC [compound 469],-3%,-30%,-28%,–
CCOC(=O)CCCNS(=O)(=O)c1cc(Cl)c(N)cc1OC [compound 484],–,-41%,–,–
CCOC(=O)CCCNS(=O)(=O)c1cc(Cl)c([N+](=O)[O-])cc1OC [compound 486],–,-66%,-21%,–
COc1cc([N+](=O)[O-])c(Cl)cc1S(=O)(=O)NCCCCCCCCCCC(=O)O [compound 501],-24%,-17%,-18%,–
CCOC(=O)CCCCCCCCCCNS(=O)(=O)c1cc(Cl)c(N)cc1OC [compound 503],–,-26%,-18%,–
COc1cc([N+](=O)[O-])c(Cl)cc1S(=O)(=O)NCCCCCCCC(=O)O [compound 504],-45%,–,–,–
CCOC(=O)CCCCCCCNS(=O)(=O)c1cc(Cl)c([N+](=O)[O-])cc1OC [compound 508],-8%,-17%,–,–
O=C(O)CCCCCNS(=O)(=O)c1ccc([N+](=O)[O-])cc1 [compound 562],–,-6%,–,–
CCOC(=O)CCCCCNS(=O)(=O)c1ccc([N+](=O)[O-])cc1 [compound 563],-8%,-27%,–,–
O=C(O)CCCCCCCCCCNS(=O)(=O)c1ccc([N+](=O)[O-])cc1 [compound 564],–,-37%,-15%,–
CCOC(=O)CCCCCNS(=O)(=O)c1ccc([N+](=O)[O-])cc1OC [compound 608],-19%,-15%,–,–
CCOC(=O)CCCCCNS(=O)(=O)c1ccc(N)cc1 [compound 609],-40%,–,-2%,–
CCOC(=O)CCCCCCCCCCNS(=O)(=O)c1ccc([N+](=O)[O-])cc1 [compound 610],-20%,-2%,–,–
CCOC(=O)CCCCCCCCCCNS(=O)(=O)c1ccc([N+](=O)[O-])cc1OC [compound 611],-29%,-15%,–,–
CCOC(=O)CCCCCNS(=O)(=O)c1ccc(N)cc1OC [compound 612],-1%,-48%,-13%,–
CCOC(=O)CCCNS(=O)(=O)c1ccc(N)cc1 [compound 624],-18%,–,–,–
CCOC(=O)CCCNS(=O)(=O)c1ccc([N+](=O)[O-])cc1OC [compound 625],–,–,-5%,–
CCOC(=O)CCCCCCCCCCNS(=O)(=O)c1ccc(N)cc1 [compound 626],-18%,–,–,–

SMILES,"change in vivo at 250 mg/kg [1, 3]","change in vivo at 250 mg/kg [1, 4]","change in vivo at 250 mg/kg [1, 5]",other results
CCOC(=O)CCCNS(=O)(=O)c1ccc(N)cc1OC [compound 656],-14%,-3%,-29%,–
COc1cc([N+](=O)[O-])ccc1S(=O)(=O)NCCCC(=O)O [compound 660],-42%,-36%,-90%,–
COc1cc([N+](=O)[O-])ccc1S(=O)(=O)NCCCCCCCCCCC(=O)O [compound 661],-37%,–,-86%,–
CCOC(=O)CCCCCNS(=O)(=O)c1cccc([N+](=O)[O-])c1 [compound 666],–,-20%,–,–
Nc1ccc(S(=O)(=O)NCCCCCCCCCCC(=O)O)cc1 [compound 667],-7%,-45%,–,–
COc1cc(N)ccc1S(=O)(=O)NCCCCCCCCCCC(=O)O [compound 668],-27%,-20%,-29%,–
Nc1cccc(S(=O)(=O)NCCCC(=O)O)c1 [compound 680],–,-46%,-16%,–
CCOC(=O)CCCCCNS(=O)(=O)c1cccc(N)c1 [compound 682],–,-22%,-34%,–
CCOC(=O)CCCCCCCCCCNS(=O)(=O)c1cccc(N)c1 [compound 683],–,-19%,-52%,–
"COc1cc(N)ccc1S(=O)(=O)NCCCCCC(=O)O [compound 694, ε(4-amino 2-methoxybenzenesulfonamido)caproic acid]",-32%,-31%,-65%,–
Nc1cccc(S(=O)(=O)NCCCCCCCCCCC(=O)O)c1 [compound 695],-24%,-20%,-27%,–
"COc1cc([N+](=O)[O-])ccc1S(=O)(=O)NCCCCCC(=O)O [compound 696, ε(4-nitro 2-methoxybenzenesulfonamido)caproic acid]",-56%,-46%,-59%,–
O=C(O)CCCCCCCCCCNS(=O)(=O)c1cccc([N+](=O)[O-])c1 [compound 697],-46%,-35%,-50%,–
CCOC(=O)CCCCCCCCCCNS(=O)(=O)c1ccc(Cl)cc1 [compound 728],–,-32%,-53%,–
CCOC(=O)CCCCCCCNS(=O)(=O)c1cc(Cl)c(N)cc1OC [compound 730],–,–,-10%,–
O=C(O)CCCNS(=O)(=O)c1cccnc1 [compound 786],-36%,-24%,-17%,"TRIGLYCERIDES, % reduction with respect to the control diet ([2]; 4 weeks administration): -17,24%; CHOLESTEROL HDL, % with respect to the control diet ([2]; HDL, 4 weeks administration): -20,83%; CHOLESTEROL LDL, % reduction with respect to the control diet ([2]; LDL, 4 weeks administration): -57,07%; CHOLESTEROL LDL, Score with respect to clofibrate ([2]; clofibrate counted as 1): 1,03; CHOLESTEROL T, Score with respect to clofibrate ([2]; clofibrate counted as 1): 1,11; TRIGLYCERIDES, Score with respect to clofibrate ([2]; clofibrate counted as 1): 0,71; CHOLESTEROL T, % reduction with respect to the control diet ([2]; total cholesterol, 4 weeks administration): -54,22%; % decrease in animals afflicted with lesions (atherosclerosis lesions): 6,67%; Score with respect to the reference clofibrate (animals afflicted with lesions) (atherosclerosis lesions; clofibrate counted as 1): 0,37; AFFECTED ANIMALS % (atherosclerosis lesions; macroscopic exams, TEM-diet 100): 93,33%"
O=C(O)CCCCCNS(=O)(=O)c1cccs1 [compound 800],-13%,-33%,-5%,–
O=C(O)CCCCCCCCCCNS(=O)(=O)c1cccs1 [compound 823],-41%,-25%,–,–
